Counter-ions that a name gives are not always drawn. Like-named read-outs stand apart in the source and are kept apart here.

One series relates to rats. Conditions: literature; cited from earlier work.
Series [1] deals with human volunteers and obese subjects. Conditions: literature, cited from earlier work.
The next series has as its target T1, human 5-HT2B receptors (Homo sapiens, UniProt P41595).
T1 construct: expressed in transfected cells; host or cells: CHO cell line
The series is described as follows: Binding to 5-HT2B receptor, [3H]-5-HT, Method (b). The procedure:
(§1) The binding of compounds of formula (I) to serotonin receptors was determined in vitro by standard methods. The preparations were investigated in accordance with the assays given below.
Method (b): For the binding to the 5-HT2B receptor, the 5-HT2B receptors were radiolabeled with [^3H]-5-HT. The affinity of the compounds for human 5-HT2B receptors in a CHO cell line was determined according to the procedure of K. Schmuck, C. Ullmer, P. Engels and H. Lubbert, FEBS Lett., 1994, 342, 85–90.
(§2) The Ki value is definied as an inhibition constance and is determined from the IC50 value as described in Cheng, Yung-Chi and Prusoff, W. H., Biochem. Pharmacol., 1973, 22(23), 3099–108.

Series [2] has as its target T2, 5-HT2A receptor (Homo sapiens, UniProt P28223). The series is described as follows: Binding to 5-HT2A receptor, [125I]-DOI, Method (c). Also on record: expressed in transfected cells; host or cells: CHO cell line. Here is the method:
as §1
Method (c): For the binding to the 5-HT2A receptor, the 5-HT2A receptors were radiolabeled with [^125I]-DOI. The affinity of the compounds for 5-HT2A receptors in a CHO cell line was determined according to the procedure of D. J. McKenna and S. J. Peroutka, J. Neurosci., 1989, 9, 3482–90.
as §2

For series [3], the target named is T3, 5-HT2C receptor (Homo sapiens, UniProt P28335).
T3 sequence (P28335 33-458): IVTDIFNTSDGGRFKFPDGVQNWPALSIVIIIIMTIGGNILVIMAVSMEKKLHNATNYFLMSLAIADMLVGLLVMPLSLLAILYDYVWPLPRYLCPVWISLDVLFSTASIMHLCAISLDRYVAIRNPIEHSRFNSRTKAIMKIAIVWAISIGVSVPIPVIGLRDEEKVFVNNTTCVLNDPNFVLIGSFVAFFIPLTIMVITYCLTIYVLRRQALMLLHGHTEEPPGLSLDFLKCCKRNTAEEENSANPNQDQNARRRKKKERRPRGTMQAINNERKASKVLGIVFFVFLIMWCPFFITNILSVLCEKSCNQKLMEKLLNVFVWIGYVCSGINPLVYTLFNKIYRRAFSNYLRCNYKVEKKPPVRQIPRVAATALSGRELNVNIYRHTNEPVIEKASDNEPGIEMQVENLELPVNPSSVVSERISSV
In words: Binding to 5-HT2C receptor, [3H]-5-HT, Method (a). The arrangement: expressed in transfected cells; host or cells: CHO cell line. The procedure:
as §1
Method (a): For the binding to the 5-HT2C receptor, the 5-HT2C receptors were radiolabeled with [^3H]-5-HT. The affinity of the compounds for 5-HT2C receptors in a CHO cell line was determined according to the procedure of D. Hoyer, G. Engel and H. O. Kalkman, European J. Pharmacol., 1985, 118, 13–23.
as §2

Series [4] concerns the target T3, 5-HT2C receptor. In words: Functional activity, FLIPR calcium assay, CHO cells expressing human 5-HT2C. Type of series: cell-based. The arrangement: expressed in transfected cells; host or cells: CHO cells. Conditions: for h5-HT2c Relative Efficacy: maximum fluorescent signal relative to 10 μM 5-HT (defined as 100%). The procedure:
(§3) The functional activity of compounds of formula (I) was assayed using a Fluorimetric Imaging Pate reader (FLIPR). CHO cells expressing the human 5-HT2C or human 5-HT2A receptors were counted and plated into standard 96 well microtitre plates on the day before testing to give a confluent monolayer. The cells were then dye loaded with the calcium sensitive dye, Fluo-3-AM. Unincorporated dye was removed using an automated cell washer to leave a total volume of 100 μL/well of assay buffer (Hanks balanced salt solution containing 20 mM Hepes and 2.5 mM probenecid). The drug (dissolved in 50 µL of the assay buffer) was added at a rate of 70 μL/sec to each well of the FLIPR 96 well plate during fluorescence measurements. The measurements were taken at 1 sec intervals and the maximum fluorescent signal was measured (approx 10–15 secs after drug addition) and compared with the response produced by 10 μM 5-HT (defined as 100%) to which it was expressed as a percentage response (relative efficacy). Dose response curves were constructed using Graphpad Prism (Graph Software Inc.).

The target of series [5] is T2, 5-HT2A receptor. In words: Functional activity, FLIPR calcium assay, CHO cells expressing human 5-HT2A. Conditions: for h5-HT2A Relative Efficacy: maximum fluorescent signal relative to 10 μM 5-HT (defined as 100%). The arrangement: expressed in transfected cells; host or cells: CHO cells. Type of series: cell-based. The procedure:
as §3

The mark [6] stands for this setting: Method (b), [3H]-5-HT, human 5-HT2B in CHO cell line, Ki calculated from IC50, read-out: Ki (2B).
[7] abbreviates: Method (c), [125I]-DOI, CHO cell line, Ki calculated from IC50, read-out: Ki (2A).
The mark [8] stands for this setting: Method (a), [3H]-5-HT, CHO cell line, Ki calculated from IC50 (Cheng-Prusoff), read-out: Ki (2C).
[9] abbreviates: FLIPR, CHO cells, Fluo-3-AM, read-out: h5-HT2c EC50.
Setting [10] is: FLIPR, CHO cells, Fluo-3-AM, read-out: h5-HT2A EC50.

T1 sequence (P41595 whole entry): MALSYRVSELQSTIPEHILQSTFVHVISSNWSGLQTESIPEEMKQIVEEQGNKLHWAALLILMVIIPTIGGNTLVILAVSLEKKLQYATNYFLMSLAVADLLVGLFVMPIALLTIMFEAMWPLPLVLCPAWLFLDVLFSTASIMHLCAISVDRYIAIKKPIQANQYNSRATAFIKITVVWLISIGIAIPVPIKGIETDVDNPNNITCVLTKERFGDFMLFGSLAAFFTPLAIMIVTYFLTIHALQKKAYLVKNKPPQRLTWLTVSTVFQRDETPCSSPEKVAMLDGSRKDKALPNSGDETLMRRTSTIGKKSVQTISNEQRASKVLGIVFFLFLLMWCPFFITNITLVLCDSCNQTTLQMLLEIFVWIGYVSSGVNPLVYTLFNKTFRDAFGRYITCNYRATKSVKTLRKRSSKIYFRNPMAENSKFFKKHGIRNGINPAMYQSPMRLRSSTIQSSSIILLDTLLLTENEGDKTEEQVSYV
T2 sequence (P28223 whole entry): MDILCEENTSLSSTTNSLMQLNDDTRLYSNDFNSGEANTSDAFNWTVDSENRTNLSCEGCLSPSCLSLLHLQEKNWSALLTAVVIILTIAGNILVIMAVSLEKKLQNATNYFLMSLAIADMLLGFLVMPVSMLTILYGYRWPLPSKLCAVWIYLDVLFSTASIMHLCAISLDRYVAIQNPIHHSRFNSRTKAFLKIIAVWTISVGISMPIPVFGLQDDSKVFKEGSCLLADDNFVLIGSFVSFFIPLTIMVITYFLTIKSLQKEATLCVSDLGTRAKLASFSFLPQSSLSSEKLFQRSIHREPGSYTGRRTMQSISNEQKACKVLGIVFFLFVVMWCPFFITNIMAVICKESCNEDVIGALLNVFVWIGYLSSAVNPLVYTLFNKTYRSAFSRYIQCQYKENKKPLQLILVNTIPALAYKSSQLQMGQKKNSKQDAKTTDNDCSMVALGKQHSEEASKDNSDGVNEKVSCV

`C[C@@H]1CNCCN1C(=O)OCc1ccc(OC(F)F)cc1.O=C(O)/C=C/C(=O)O`: the melting point (in general, the temperature, or range, at which the solid turns liquid) was 123.9 to 124.5 °C.

The compound `Cl.O=C(SCc1ccc(OCc2ccc(F)cc2)cc1)N1CCNCC1` registered a melting point of 169 to 169.5 °C.

The compound `CCCCOc1ccc(F)c(COC(=O)N2[C@H](C)CNC[C@@H]2C)c1.O=C(O)/C=C/C(=O)O` had a melting point of 153.2 to 153.5 °C.

In turn, `CCOc1ccc(F)c(COC(=O)N2[C@H](C)CNC[C@@H]2C)c1.O=C(O)/C=C/C(=O)O` came in with a melting point of 142.9 to 143.3 °C.

As for `Clc1cccc(N2CCNCC2)c1` [mCPP, m-chlorophenylpiperazine], the “food intake in rats” value in the series on rats is listed as “reduce food intake”. In addition, the “appetite and body weight” value in series [1] (obese male and female subjects, subchronic treatment for a 14 day period) is “decreased the appetite and body weight”. Moreover, the food intake result in series [1] (single dose, female volunteers) is listed as “decreased food intake”.

Take `Cl.O=C(SCc1ccc(OCc2ccccc2)cc1)N1CCNCC1` [Example 32, Piperazine-1-carbothioic acid S-(4-benzyloxy-benzyl) ester hydrochloride]: the Ki – broadly, the equilibrium dissociation constant of an inhibitor or competing ligand from its target – is 370 nM at human 5-HT2B receptors (setting [6]), 6 nM on 5-HT2A receptor [2] (setting [7]) and 15 nM on 5-HT2C receptor [3] (setting [8]). Further, the EC50 (usually the midpoint of the concentration-response curve) stood at 38 nM at 5-HT2C receptor [4] (setting [9]) and 560 nM on 5-HT2A receptor [5] (setting [10]). Moreover, the “h5-HT2c Relative Efficacy” value on 5-HT2C receptor [4] stood at 65%. Moreover, the “h5-HT2A Relative Efficacy” value at 5-HT2A receptor [5] was 22%.

The compound `Cl.O=C(OCc1ccc(Br)cc1F)N1CCNCC1` displayed a melting point of 209.5 to 209.6 °C.

Take `CCCCOc1ccc(F)c(COC(=O)N2CCNCC2)c1.O=C(O)/C=C/C(=O)O`: the melting point was 142.4 to 143.5 °C.

For the compound `CC(C)NC(=O)Oc1ccc(CSC(=O)N2CCNCC2)cc1` [Example 63, S-4-[(2-Propylamino)carbonyl]oxybenzyl piperazine-1-thiocarboxylate hydrochloride], the Ki on human 5-HT2B receptors is 8300 nM; on 5-HT2A receptor [2], 550 nM; on 5-HT2C receptor [3], 33 nM. Also, the EC50 was 33 nM at 5-HT2C receptor [4] and 370 nM on 5-HT2A receptor [5]. Further, the “h5-HT2c Relative Efficacy” value at 5-HT2C receptor [4] was 74%. Further, the “h5-HT2A Relative Efficacy” value at 5-HT2A receptor [5] turned out to be 25%.

The compound `CCCOc1ccc(F)c(COC(=O)N2CCNCC2)c1.O=C(O)/C=C/C(=O)O` gave a melting point of 155.9 to 156.1 °C.

As for `Cc1noc(C)c1COc1cc(F)c(COC(=O)N2[C@H](C)CNC[C@@H]2C)c(F)c1` [Example 121, cis-2,6-Dimethyl-piperazine-1-carboxylic acid 4-(3,5-dimethyl-isoxazol-4-ylmethoxy)-2,6-difluoro-benzyl esterfumarate], the inhibition constant (Ki) on human 5-HT2B receptors (setting [6]) is 8400 nM; at 5-HT2A receptor [2] (setting [7]), 200 nM; at 5-HT2C receptor [3] (setting [8]) it was 15 nM. The figures for the EC50 at 5-HT2C receptor [4] (setting [9]) and at 5-HT2A receptor [5] (setting [10]) were 22 nM and 550 nM, respectively. Further, the “h5-HT2c Relative Efficacy” value on 5-HT2C receptor [4] turned out to be 91%. Further, the “h5-HT2A Relative Efficacy” value on 5-HT2A receptor [5] stood at 11%.

`CCCCOc1ccc(F)c(COC(=O)N2CCNC[C@H]2C)c1.O=C(O)/C=C/C(=O)O` gave a melting point of 171.6 to 171.7 °C.

In the case of `CCCOc1cc(F)c(COC(=O)N2CCNC[C@H]2C)c(F)c1.O=C(O)/C=C/C(=O)O`, the melting point fell in the range of 193.9 to 194 °C.

`Cl.O=C(OCc1ccc(OC(F)F)cc1)N1CCNCC1` [Example 22, Piperazine-1-carboxylic acid 4-difluoromethoxy-benzyl ester hydrochloride]: the Ki on human 5-HT2B receptors (setting [6]) is 4000 nM; on 5-HT2A receptor [2] (setting [7]), 44 nM; at 5-HT2C receptor [3] (setting [8]), 44 nM. For the same compound, the 50% effective concentration (EC50) on 5-HT2C receptor [4] (setting [9]) worked out at 100 nM; at 5-HT2A receptor [5] (setting [10]), 220 nM. Besides, the “h5-HT2c Relative Efficacy” value at 5-HT2C receptor [4] is given as 56%. In addition, at 5-HT2A receptor [5], the “h5-HT2A Relative Efficacy” value amounted to 24%.

Compound `C[C@@H]1CNC[C@H](C)N1C(=O)OCc1c(F)ccc(Br)c1F.Cl` yielded a melting point of 207 to 210 °C.

Regarding `CC(C)COc1ccc(F)c(COC(=O)N2[C@H](C)CNC[C@@H]2C)c1.O=C(O)/C=C/C(=O)O`, the melting point fell in the range of 178.6 to 178.7 °C.

`CCCOc1ccc(F)c(COC(=O)N2CCNC[C@H]2C)c1.O=C(O)/C=C/C(=O)O` came in with a melting point of 162.6 to 162.7 °C.

Regarding `CCCOc1cc(F)c(COC(=O)N2CCNCC2CC)c(F)c1.O=C(O)/C=C/C(=O)O` (racemic), the melting point is 145 to 165 °C (dec.).

The values are drawn from patent publication US7022707B2, “Piperazine derivatives” (Hoffman-La Roche Inc., priority 2000, dated 2006).
